Laboratory results taken from patent US20240132431A1, “METHOD FOR ALKYLATING ACIDIC FUNCTIONAL GROUP” (Chugai Seiyaku Kabushiki Kaisha, priority 2021, published 2024).

Target: T1, Bcl-2 protein (Recombinant Human Bcl-2 Protein) (Homo sapiens, UniProt P10415)
T1 construct: purchased Novus NBP2-34889
Experiment: Binding evaluation of mixture library compounds to Bcl-2 using AS-MS (affinity selection mass spectrometry)
Settings: AS-MS, mixture library, Bcl-2, ASMS Ratio(%)=(A−C)/B×100; for ASMS ratio (%) n = 1: replicate n = 1; for ASMS ratio (%) n = 2: replicate n = 2
Procedure, shortened: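 Readout is ASMS Ratio (%), (A−C)/B×100, from reversed-phase LC/MS of SEC-passed extracts, with protein-free unfiltered standard (B) and protein-free SEC blank (C). Recombinant human Bcl-2 at 20 μM final met ~1200 pooled compounds at […] each for 1 h, 23° C., dark, in Tris-HCl pH 7.4 buffer.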

T1 sequence (P10415 whole entry): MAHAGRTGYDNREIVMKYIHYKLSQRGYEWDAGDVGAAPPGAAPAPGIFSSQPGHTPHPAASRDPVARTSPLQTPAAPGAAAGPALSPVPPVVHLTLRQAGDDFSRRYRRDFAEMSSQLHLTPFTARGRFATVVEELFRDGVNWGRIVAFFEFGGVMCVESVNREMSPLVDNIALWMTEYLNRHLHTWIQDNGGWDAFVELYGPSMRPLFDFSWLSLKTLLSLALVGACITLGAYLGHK

SMILES	ASMS ratio (%) n = 1	ASMS ratio (%) n = 2
CCOc1cccc(-c2ccc(CN3CCN(c4ccc(C(=O)NS(=O)(=O)c5ccc(NCCSc6ccccc6)c([N+](=O)[O-])c5)nn4)CC3)c(OC)c2)c1 [B2Q079-01, 6-[4-[[4-(3-Ethoxyphenyl)-2-methoxyphenyl]methyl]piperazin-1-yl]-N-[3-nitro-4-(2-phenylsulfanylethylamino)phenyl]sulfonylpyridazine-3-carboxamide]	17.6%	0.0%
CCOc1cncc(-c2ccc(CN3CCN(c4ccc(C(=O)NS(=O)(=O)c5ccc(NCCSc6ccccc6)c([N+](=O)[O-])c5)nn4)CC3)c(OC)c2)c1 [B2Q080-01, 6-[4-[[4-(5-Ethoxypyridin-3-yl)-2-methoxyphenyl]methyl]piperazin-1-yl]-N-[3-nitro-4-(2-phenylsulfanylethylamino)phenyl]sulfonylpyridazine-3-carboxamide]	12.6%	3.6%
CCOc1cccc(-c2cc(CN3CCN(c4ccc(C(=O)NS(=O)(=O)c5ccc(NCCSc6ccccc6)c([N+](=O)[O-])c5)nn4)CC3)cc(OCC)c2)c1 [B2Q081-01, 6-[4-[[3-Ethoxy-5-(3-ethoxyphenyl)phenyl]methyl]piperazin-1-yl]-N-[3-nitro-4-(2-phenylsulfanylethylamino)phenyl]sulfonylpyridazine-3-carboxamide]	−4.8%	0.6%
CCOc1cncc(-c2cc(CN3CCN(c4ccc(C(=O)NS(=O)(=O)c5ccc(NCCSc6ccccc6)c([N+](=O)[O-])c5)nn4)CC3)cc(OCC)c2)c1 [B2Q082-01, 6-[4-[[3-Ethoxy-5-(5-ethoxypyridin-3-yl)phenyl]methyl]piperazin-1-yl]-N-[3-nitro-4-(2-phenylsulfanylethylamino)phenyl]sulfonylpyridazine-3-carboxamide]	21.3%	8.5%
CCOc1cccc(-c2cc(CN3CCN(c4ccc(C(=O)NS(=O)(=O)c5ccc(NCCSc6ccccc6)c([N+](=O)[O-])c5)nn4)CC3)cc(OC(C)C)c2)c1 [B2Q083-01, 6-[4-[[3-(3-Ethoxyphenyl)-5-propan-2-yloxyphenyl]methyl]piperazin-1-yl]-N-[3-nitro-4-(2-phenylsulfanylethylamino)phenyl]sulfonylpyridazine-3-carboxamide]	–	0.0%
CCOc1cncc(-c2cc(CN3CCN(c4ccc(C(=O)NS(=O)(=O)c5ccc(NCCSc6ccccc6)c([N+](=O)[O-])c5)nn4)CC3)cc(OC(C)C)c2)c1 [B2Q084-01, 6-[4-[[3-(5-Ethoxypyridin-3-yl)-5-propan-2-yloxyphenyl]methyl]piperazin-1-yl]-N-[3-nitro-4-(2-phenylsulfanylethylamino)phenyl]sulfonylpyridazine-3-carboxamide]	12.6%	−4.9%
CCOc1cccc(-c2cc(OC)c(CN3CCN(c4ccc(C(=O)NS(=O)(=O)c5ccc(NCCSc6ccccc6)c([N+](=O)[O-])c5)nn4)CC3)c(OC)c2)c1 [B2Q085-01, 6-[4-[[4-(3-Ethoxyphenyl)-2,6-dimethoxyphenyl]methyl]piperazin-1-yl]-N-[3-nitro-4-(2-phenylsulfanylethylamino)phenyl]sulfonylpyridazine-3-carboxamide]	14.9%	0.7%
CCOc1cncc(-c2cc(OC)c(CN3CCN(c4ccc(C(=O)NS(=O)(=O)c5ccc(NCCSc6ccccc6)c([N+](=O)[O-])c5)nn4)CC3)c(OC)c2)c1 [B2Q086-01, 6-[4-[[4-(5-Ethoxypyridin-3-yl)-2,6-dimethoxyphenyl]methyl]piperazin-1-yl]-N-[3-nitro-4-(2-phenylsulfanylethylamino)phenyl]sulfonylpyridazine-3-carboxamide]	−39.4%	0.0%

More lines, now with the values ahead:

ASMS ratio (%) n = 1	ASMS ratio (%) n = 2	SMILES
17.6%	−2.1%	CCOc1cccc(-c2cc(CN3CCN(c4ccc(C(=O)NS(=O)(=O)c5ccc(NCCSc6ccccc6)c([N+](=O)[O-])c5)nn4)CC3)cc(C(F)(F)F)c2)c1 [B2Q087-01, 6-[4-[[3-(3-Ethoxyphenyl)-5-(trifluoromethyl)phenyl]methyl]piperazin-1-yl]-N-[3-nitro-4-(2-phenylsulfanylethylamino)phenyl]sulfonylpyridazine-3-carboxamide]
13.8%	9.1%	CCOc1cncc(-c2cc(CN3CCN(c4ccc(C(=O)NS(=O)(=O)c5ccc(NCCSc6ccccc6)c([N+](=O)[O-])c5)nn4)CC3)cc(C(F)(F)F)c2)c1 [B2Q088-01, 6-[4-[[3-(5-Ethoxypyridin-3-yl)-5-(trifluoromethyl)phenyl]methyl]piperazin-1-yl]-N-[3-nitro-4-(2-phenylsulfanylethylamino)phenyl]sulfonylpyridazine-3-carboxamide]
25.0%	15.0%	CCOc1cccc(-c2cc(CN3CCN(c4ccc(C(=O)NS(=O)(=O)c5ccc(NCCSc6ccccc6)c([N+](=O)[O-])c5)nn4)CC3)cc(OC(F)(F)F)c2)c1 [B2Q089-01, 6-[4-[[3-(3-Ethoxyphenyl)-5-(trifluoromethoxy)phenyl]methyl]piperazin-1-yl]-N-[3-nitro-4-(2-phenylsulfanylethylamino)phenyl]sulfonylpyridazine-3-carboxamide]
21.8%	13.2%	CCOc1cncc(-c2cc(CN3CCN(c4ccc(C(=O)NS(=O)(=O)c5ccc(NCCSc6ccccc6)c([N+](=O)[O-])c5)nn4)CC3)cc(OC(F)(F)F)c2)c1 [B2Q090-01, 6-[4-[[3-(5-Ethoxypyridin-3-yl)-5-(trifluoromethoxy)phenyl]methyl]piperazin-1-yl]-N-[3-nitro-4-(2-phenylsulfanylethylamino)phenyl]sulfonylpyridazine-3-carboxamide]
17.2%	−5.0%	CCOc1cccc(-c2ccc(CN3CCN(c4ccc(C(=O)NS(=O)(=O)c5ccc(NCCSc6ccccc6)c([N+](=O)[O-])c5)nn4)CC3)c3ccccc23)c1 [B2Q091-01, 6-[4-[[4-(3-Ethoxyphenyl)naphthalen-1-yl]methyl]piperazin-1-yl]-N-[3-nitro-4-(2-phenylsulfanylethylamino)phenyl]sulfonylpyridazine-3-carboxamide]
10.4%	4.8%	CCOc1cncc(-c2ccc(CN3CCN(c4ccc(C(=O)NS(=O)(=O)c5ccc(NCCSc6ccccc6)c([N+](=O)[O-])c5)nn4)CC3)c3ccccc23)c1 [B2Q092-01]
7.2%	2.5%	CCOc1cncc(-c2csc(CN3CCN(c4ccc(C(=O)NS(=O)(=O)c5ccc(NCCSc6ccccc6)c([N+](=O)[O-])c5)nn4)CC3)c2)c1 [B2Q094-01, 6-[4-[[4-(5-Ethoxypyridin-3-yl)thiophen-2-yl]methyl]piperazin-1-yl]-N-[3-nitro-4-(2-phenylsulfanylethylamino)phenyl]sulfonylpyridazine-3-carboxamide]
19.9%	11.9%	CCOc1cccc(C#Cc2ccccc2CN2CCN(c3ccc(C(=O)NS(=O)(=O)c4ccc(NCCSc5ccccc5)c([N+](=O)[O-])c4)nn3)CC2)c1 [B2Q095-01]
